By logP is commonly meant the decadic logarithm of the partition coefficient of the neutral form, usually between octanol and water. The low end stands for a more hydrophilic compound, the high end for a more lipophilic compound. Broadly, the logD is the decadic logarithm of the distribution of all forms, ionised or not, between an organic phase and buffer at a given pH.

Data on 77 compounds can be found in the SangsterLogP compilation.

Data set [1] can be described thus: method code SF-AS, from DOI: 10.1021/jm00047a013, PMID: 7932583.
Experiment in data set [2]: not given
The source holds these as a separate data set.

Experiment in data set [3]: not given
The source holds these as a separate data set.

Data set [4] in a line: method code G-GLC, from DOI: 10.1021/es00169a004.
The nature of data set [5]: method code SF-HPLC, from DOI: 10.1023/a:1015862319927, PMID: 2062808. As to conditions: pH 7.4.
Experiment in data set [6]: not given
The source holds these as a separate data set.

Experiment in data set [7]: not given
The source holds these as a separate data set.

Data set [8] is described as follows: method code SF-AS, from DOI: 10.1007/bf00165040, PMID: 3033523. Particulars: pH 7.4.
Experiment in data set [9]: not given
The source holds these as a separate data set.

Experiment in data set [10]: not given
The source holds these as a separate data set.

Experiment in data set [11]: not given
This is another data set of the same source.

A short description of data set [12]: method code SF-AS, from DOI: 10.1002/jps.2600790421, PMID: 2352153.
A short description of data set [13]: method code SF-AS, from DOI: 10.1139/cjpp-75-12-1362, PMID: 9534947.
Experiment in data set [14]: not given
This is another data set of the same source.

Data set [15] can be described thus: method code SF, from DOI: 10.1021/jm00237a002, PMID: 1133810. As to conditions: pH 7.2.
Data set [16] in a line: method code SF-HPLC, from DOI: 10.1021/jm00112a026, PMID: 1875345. As to conditions: pH 7.4.
A short description of data set [17]: method code SF-GLC, from DOI: 10.1016/j.chemosphere.2013.04.065, PMID: 23732011.
Experiment in data set [18]: not given
The source holds these as a separate data set.

The nature of data set [19]: method code SF-HPLC, from DOI: 10.1016/j.ejpb.2013.06.022, PMID: 23958327. As to conditions: pH 6.0.
Data set [20] can be described thus: method code SF-AS, from DOI: 10.1016/0045-6535(95)00267-c.
Experiment in data set [21]: not given
This is another data set of the same source.

Data set [22] in a line: method code SF-AS, from DOI: 10.1016/0378-5173(84)90231-x.
Experiment in data set [23]: not given
This is another data set of the same source.

The nature of data set [24]: method code SF-HPLC, from DOI: 10.1016/0378-5173(89)90028-8.
Data set [25] is described as follows: method code SF-GLC, from DOI: 10.1016/0048-3575(76)90072-9.

`CO[C@@H]1N([C@H]2C[C@H](F)[C@@H](CO)O2)C(=O)NC(=O)[C@@]1(C)Br` had a lipophilicity (logP) in [1] of 0.54. For `Clc1cc(Cl)cc(-c2cc(Cl)c(Cl)cc2Cl)c1`, the logP was found to be 5.68.

For the compound `CO[C@H]1N([C@H]2C[C@H](F)[C@@H](CO)O2)C(=O)NC(=O)[C@]1(C)Cl`, in data set [1], the logP is 0.71.

In data set [2], `O=C(O)CCC12C=CC(CCC(=O)O)(OO1)c1ccccc12` came in with a logP of -0.13. Turning to `Clc1ccc(Cl)c(-c2cccc(Cl)c2Cl)c1`, the lipophilicity (logP) worked out at 5.81. In [3], `C=C(C)C(=O)OCc1ccccc1` displayed a logP of 2.16.

Compound `Clc1cc(Cl)c(-c2c(Cl)c(Cl)cc(Cl)c2Cl)c(Cl)c1Cl` showed a lipophilicity (logP) in [4] of 7.21. `COc1ccc(C(=O)OCC2OC(n3cc(I)c(=O)[nH]c3=O)CC2O)cc1` (configuration not stated) gave a logD in data set [5] of 1.38. In data set [6], `CCCNc1ccc(C(=O)OCCN(C)C)cc1` had a logP of 3.15. Compound `Cc1c(N=C2NCCN2)ccc2c1NCCN2` came in with a logP in [7] of 0.04. The compound `CC(C)C(=O)OCC1OC(n2cc(I)c(=O)[nH]c2=O)C1O` (configuration not stated) yielded a logD in data set [5] of 0.83. The compound `Nc1ncnc2c1nc(Sc1ccc(Cl)cc1)n2[C@@H]1O[C@@H]2COP(=O)(O)O[C@H]2[C@H]1O` showed a logD in data set [8] of -0.98. As for `CC1=CC(=O)c2cc(C)ccc2C1=O`, the logP in data set [9] worked out at 1.77. In turn, `CCCSP(=S)(OCC)Oc1ccc(SC)cc1` (configuration not stated) yielded a logP in data set [10] of 4.9. In the case of `CCOP(=O)(NC(C)CC)Oc1cc(C)ccc1[N+](=O)[O-]` (configuration not stated), the logP in data set [10] is 2.73.

Regarding `C=C(C)C(=O)OCC(O)COc1ccc(C(C)(C)c2ccc(OCC(O)COC(=O)C(=C)C)cc2)cc1` (configuration not stated), in [3], the log partition coefficient (logP) was determined as 3.34. As to `O=C1NC(Cc2c[nH]c3ccccc23)C(=O)NC1Cc1ccc(O)cc1` (configuration not stated), the logP in data set [11] was determined as 1.21. As to `CSc1nc2c(N)ncnc2n1C1OC2COP(=O)(O)OC2C1O` (configuration not stated), the logD in data set [8] is -2.03. As to `O=NN(CCCl)C(CC(=O)NCCCl)C(=O)NC(=O)NCCCl` (configuration not stated), the logP in data set [12] was 3.15. `Nc1ccc(C(=O)N/N=C/c2c(O)ccc3ccccc23)cc1` gave a logP in data set [13] of 3.04. Compound `CCCCc1oc2ccccc2c1C(=O)c1ccc(O)cc1` had a logP in data set [14] of 4.87. Regarding `O=NN(CCCl)C(Cc1ccccc1)C(=O)NC(=O)NCCCl` (configuration not stated), the log partition coefficient (logP) in data set [12] was 3.25. Regarding `CCCCOc1cnc(NS(=O)(=O)c2ccccc2)nc1`, the log distribution coefficient (logD) in data set [15] is 1.41. In [6], `CCCCCNc1ccc(C(=O)OCCN(C)C)cc1` displayed a logP of 4.14. In data set [2], `CC12C=CC(C)(OO1)c1ccccc12` showed a log partition coefficient (logP) of 2.17.

In the case of `OC(CN1C2CCCCCCC21)Cn1ccnc1` (configuration not stated), the logD in [16] came to 1.84. For the compound `CNc1ccc(C(=O)OCCN(C)C)cc1`, the logP in data set [6] came out at 1.95.

With `O=C(N/N=C/c1c(O)ccc2ccccc12)c1cccc(F)c1`, the logP in data set [13] was found to be 4.06. In [17], `C=CCOc1ccc(OCCC)cc1` registered a lipophilicity (logP) of 2.4. The same measure, in the same setting: in the case of `C=CCOc1ccc(OCC=C)cc1` it was 3.5. `Clc1cc(Cl)c2[nH]c3c(Cl)cc(Cl)cc3c2c1` displayed a logP in data set [18] of 5.75.

With `CCOC(=O)O[C@]1(C(=O)COC(=O)CC)CC[C@H]2[C@@H]3CCC4=CC(=O)C=C[C@]4(C)[C@H]3[C@@H](O)C[C@@]21C`, in [19], the logD was found to be 2.9.

Turning to `CCCCN(C)C(=O)Nc1ccc(Cl)c(Cl)c1`, the log partition coefficient (logP) in [20] was 4.1. With `O=C(c1ccc(O)cc1)c1ccc(Cl)cc1`, the logP in data set [14] turned out to be 4.

In the case of `CC12OOC(CCC(=O)O)(C=C1CCC(=O)O)c1ccccc12` (configuration not stated), in [2], the logP was 0.24.

In turn, `CC(C)C(C)Sc1nc2c(N)ncnc2n1C1OC2COP(=O)(O)OC2C1O` (configuration not stated) returned a logD in data set [8] of -1.05. In turn, `O=c1[nH]c2ccccc2n1C1CCNCC1` displayed a logP in [21] of 1.14. Consider `CC(C)Oc1cnc(NS(=O)(=O)c2ccccc2)nc1`, for which the logD in data set [15] came out at 0.86. On to `CCCCc1oc2ccccc2c1C(=O)c1cc(I)c(O)c(I)c1`, for which the logP in data set [14] worked out at 5.92. With `Cc1ncc(CO)c(/C=N/NC(=O)c2ccco2)c1O`, in [13], the log partition coefficient (logP) was determined as 1.39. For `Clc1cc(Cl)c(Cl)c(-c2ccccc2)c1Cl`, the logP in [4] was found to be 5.94.

In data set [22], `COc1ccc(C=[N+]([O-])C(C)(C)C)cc1` displayed a logP of 1.21. The compound `Clc1cc2c(cc1Cl)=c1cc(Cl)c(Cl)cc1=2` gave a log partition coefficient (logP) in data set [18] of 6.14. `Cc1c(N=C2NCCN2)ccc2nccnc12`: in data set [7], the log partition coefficient (logP) was determined as 0.9. For the compound `CO[C@@H]1N([C@H]2C[C@H](F)[C@@H](CO)O2)C(=O)NC(=O)[C@@]1(C)I`, the lipophilicity (logP) in data set [1] turned out to be 0.6. `Cc1c(N=C2NCCN2)ccc2c1NCCO2` displayed a logP in data set [7] of 0.35. On to `C1=Cc2cccc3cccc1c23`, for which the logP in data set [23] came out at 4.07.

In turn, `O=c1[nH]c2ccccc2n1C1=CCNCC1` registered a logP in [21] of 0.85.

Turning to `Cc1ccc(C=[N+]([O-])C(C)(C)C)cc1`, the log partition coefficient (logP) in data set [22] worked out at 1.74. `Clc1cc(Cl)c(-c2c(Cl)cccc2Cl)c(Cl)c1` had a lipophilicity (logP) in data set [4] of 5.37. For `c1ccc(N=Nc2ccccc2)cc1`, in data set [9], the log partition coefficient (logP) is 3.92. For the compound `OC(CN1C2CCCC21)Cn1ccnc1` (configuration not stated), in data set [16], the logD came to 0.37. In data set [24], `CCN(CC)C(=O)COC(=O)c1cn(CC)c2nc(C)ccc2c1=O` had a logP of 1.43. For the compound `CCOC(=O)c1ccc(C#Cc2ccc3c(c2)C(C)(C)CCS3)nc1`, the logD in data set [19] is 5.6. For the compound `Clc1cccc(-c2c(Cl)ccc(Cl)c2Cl)c1Cl`, the logP was 6.04. For `O=C1NC(Cc2ccccc2)C(=O)NC1Cc1ccccc1` (configuration not stated), the logP in data set [11] amounted to 2.08.

Turning to `c1ccc2c(c1)ccc1cc3ccc4ccccc4c3cc12`, the logP in data set [23] amounted to 6.84. In data set [16], `OC(CN1C2CCc3ccccc3C21)Cn1ccnc1` (configuration not stated) showed a logD of 2.15. The compound `c1ccc2c(c1)-c1ccc3ccc4cccc5cc-2c1c3c45` gave a log partition coefficient (logP) in [23] of 6.58. Consider `CC1CCCCC1NC(=O)Nc1ccccc1` (configuration not stated), for which the log partition coefficient (logP) in [20] stood at 3.09. With `CCCOc1cnc(NS(=O)(=O)c2ccccc2)nc1`, the logD in data set [15] was found to be 1.14. In data set [25], `CCOC(=O)CN(C(=O)CCl)c1ccccc1OC(C)C` gave a log partition coefficient (logP) of 2.75. On to `CCc1ccc(C=[N+]([O-])C(C)(C)C)cc1`, for which the logP in data set [22] is 2.19. On to `CCOC(=O)CN(C(=O)CCl)c1ccccc1`, for which, in data set [25], the logP was 1.6. Compound `O=c1[nH]c2cc(Cl)ccc2n1C1CCNCC1` registered a logP in [21] of 1.59. `CCn1cc(C(=O)OC)c(=O)c2ccc(C)nc21` registered a log partition coefficient (logP) in data set [24] of 1.23. Compound `CCCC(=O)OCOC(=O)c1cn(CC)c2nc(C)ccc2c1=O` displayed a lipophilicity (logP) in [24] of 2.2. In [19], `Cc1cc(C2CCCCC2)n(O)c(=O)c1` displayed a logD of 2.3. `CC(C)[C@@H](C(=O)N[C@@H](Cc1ccccc1)C(=O)NC(=O)NCCCl)N(CCCl)N=O` showed a logP in data set [12] of 3.47. `CCOP(=S)(NC(C)CC)Oc1cc(C)ccc1[N+](=O)[O-]` (configuration not stated) came in with a logP in data set [10] of 4.62. In the case of `COc1ccc(Oc2ccc(NC(=O)N(C)C)cc2)cc1`, the logP in [20] is 2.54.

As for `CCOC(=O)CN(C(=O)CCl)c1ccccc1-c1ccccc1`, the logP in [25] was 3.37. For `O=C1CNC(=O)C(Cc2ccccc2)N1` (configuration not stated), in data set [11], the logP was determined as 0.25.

Take `CC(C)NCC(O)COc1cccc2[nH]ccc12` (configuration not stated): the logP in data set [9] was 1.76. Turning to `C=C(C)C(=O)OCCC(C)OC(=O)C(=C)C` (configuration not stated), the log partition coefficient (logP) in [3] amounted to 2.16. Turning to `Clc1cc2c(cc1Cl)Oc1c(Cl)c(Cl)c(Cl)c(Cl)c1O2`, the log partition coefficient (logP) in data set [18] came out at 7.79. `C=CCOc1cccc(OCC=C)c1`: in data set [17], the log partition coefficient (logP) came to 3.8.
